Values quoted from earlier work in article PMC12500691 (Frontiers in Cellular and Infection Microbiology, 2025).

Test system: NETosis
Details: cited from earlier work

In the case of `CC[C@H](C)[C@H](NC(=O)[C@H](CCCCN)NC(=O)[C@H](CCC(=O)O)NC(=O)[C@H](CCCCN)NC(=O)[C@H](CO)NC(=O)[C@H](CCCCN)NC(=O)[C@H](CCCNC(=N)N)NC(=O)[C@H](Cc1ccccc1)NC(=O)[C@H](Cc1ccccc1)NC(=O)[C@H](CC(=O)O)NC(=O)CNC(=O)[C@H](CC(C)C)NC(=O)[C@@H](N)CC(C)C)C(=O)NCC(=O)N[C@@H](CCCCN)C(=O)N[C@@H](CCC(=O)O)C(=O)N[C@@H](Cc1ccccc1)C(=O)N[C@@H](CCCCN)C(=O)N[C@@H](CCCNC(=N)N)C(=O)N[C@H](C(=O)N[C@H](C(=O)N[C@@H](CCC(N)=O)C(=O)N[C@@H](CCCNC(=N)N)C(=O)N[C@H](C(=O)N[C@@H](CCCCN)C(=O)N[C@@H](CC(=O)O)C(=O)N[C@@H](Cc1ccccc1)C(=O)N[C@@H](CC(C)C)C(=O)N[C@@H](CCCNC(=N)N)C(=O)N[C@@H](CC(N)=O)C(=O)N[C@@H](CC(C)C)C(=O)N[C@H](C(=O)N1CCC[C@H]1C(=O)N[C@@H](CCCNC(=N)N)C(=O)N[C@H](C(=O)N[C@@H](CCC(=O)O)C(=O)N[C@@H](CO)C(=O)O)[C@@H](C)O)C(C)C)[C@@H](C)CC)C(C)C)[C@@H](C)CC` [LL-37], the “effect on NETosis” value is given as “promote NETosis”.
